Test results published in paper PMC5513037, “Examining the influence of specificity ligands and ATP-competitive ligands on the overall effectiveness of bivalent kinase inhibitors” (Proteome Science, 2017).

Tests used:
Test in all cases: KAM-matrix competition in K562 lysate;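 for 0.001 uM KAM: median log10 fold change of treatment over DMSO control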;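 for 0.01 uM KAM: median log10 fold change of treatment over DMSO control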;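 for 0.1 uM KAM: median log10 fold change of treatment over DMSO control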;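 for 1 uM KAM: median log10 fold change of treatment over DMSO control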;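 for 10 uM KAM: median log10 fold change of treatment over DMSO control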
Type in all cases: binding
NME7 = biological target: T1, NME7 (Homo sapiens, UniProt Q9Y5B8);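 for 0.001 uM KAM: median log10 fold change of treatment over DMSO control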;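 for 0.01 uM KAM: median log10 fold change of treatment over DMSO control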;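 for 0.1 uM KAM: median log10 fold change of treatment over DMSO control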;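 for 1 uM KAM: median log10 fold change of treatment over DMSO control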;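 for 10 uM KAM: median log10 fold change of treatment over DMSO control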
T1 construct: endogenous in cells; host or cells: K562
T1 sequence (Q9Y5B8 1-376): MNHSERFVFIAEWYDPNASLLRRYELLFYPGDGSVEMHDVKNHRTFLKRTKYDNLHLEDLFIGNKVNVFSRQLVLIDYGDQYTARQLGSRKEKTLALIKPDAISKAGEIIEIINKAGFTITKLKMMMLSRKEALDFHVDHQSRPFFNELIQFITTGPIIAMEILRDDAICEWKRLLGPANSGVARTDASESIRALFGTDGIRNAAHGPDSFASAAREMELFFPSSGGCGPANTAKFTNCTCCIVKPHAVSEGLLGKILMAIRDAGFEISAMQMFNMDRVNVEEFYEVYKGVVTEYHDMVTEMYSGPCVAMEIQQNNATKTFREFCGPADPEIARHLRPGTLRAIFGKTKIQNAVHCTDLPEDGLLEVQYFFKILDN
Experimental: (§1) Supplement 12953_2017_125_MOESM1_ESM.zip/MS_Supp Info.xlsx, sheet "KAM" | column: 10 uM KAM; 1 uM KAM; 0.1 uM KAM; 0.01 uM KAM; 0.001 uM KAM; RB50

RIPK2 = biological target: T2, RIPK2 (Homo sapiens, UniProt O43353)
T2 construct: endogenous in cells; host or cells: K562
Experimental: as §1

TLK1 = biological target: T3, TLK1 (Homo sapiens, UniProt Q9UKI8);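 for 0.001 uM KAM: median log10 fold change of treatment over DMSO control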;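 for 0.01 uM KAM: median log10 fold change of treatment over DMSO control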;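 for 0.1 uM KAM: median log10 fold change of treatment over DMSO control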;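 for 1 uM KAM: median log10 fold change of treatment over DMSO control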;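 for 10 uM KAM: median log10 fold change of treatment over DMSO control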
T3 construct: endogenous in cells; host or cells: K562 cells (combined S0.8 and P0.8 lysate)
T3 sequence (Q9UKI8 1-766): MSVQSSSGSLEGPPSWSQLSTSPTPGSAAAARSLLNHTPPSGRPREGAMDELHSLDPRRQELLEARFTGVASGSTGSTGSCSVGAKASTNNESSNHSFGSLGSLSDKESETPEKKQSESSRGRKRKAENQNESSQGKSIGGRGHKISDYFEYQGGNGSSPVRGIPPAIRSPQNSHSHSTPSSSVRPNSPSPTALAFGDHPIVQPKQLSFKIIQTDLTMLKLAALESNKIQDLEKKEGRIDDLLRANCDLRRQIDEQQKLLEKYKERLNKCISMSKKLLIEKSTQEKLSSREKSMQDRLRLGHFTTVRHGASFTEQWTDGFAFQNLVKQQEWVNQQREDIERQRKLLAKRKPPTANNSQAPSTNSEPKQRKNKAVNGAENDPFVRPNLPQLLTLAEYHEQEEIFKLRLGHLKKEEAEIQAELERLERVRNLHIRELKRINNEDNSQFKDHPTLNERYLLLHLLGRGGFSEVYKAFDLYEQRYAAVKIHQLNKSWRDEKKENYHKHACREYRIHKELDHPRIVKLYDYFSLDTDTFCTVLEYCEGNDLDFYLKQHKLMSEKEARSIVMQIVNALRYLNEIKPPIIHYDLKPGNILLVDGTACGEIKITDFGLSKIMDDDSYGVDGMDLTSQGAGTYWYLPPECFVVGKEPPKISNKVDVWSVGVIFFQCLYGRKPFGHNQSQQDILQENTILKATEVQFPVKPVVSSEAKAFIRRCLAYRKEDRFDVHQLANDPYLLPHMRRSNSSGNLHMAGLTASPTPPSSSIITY
Experimental: as §1

PRKAA1 = biological target: T4, PRKAA1 (Homo sapiens, UniProt Q13131)
T4 construct: endogenous in cells; host or cells: K562
Experimental: as §1

JAK3 = biological target: T5, JAK3 (Homo sapiens, UniProt P52333);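 for 0.001 uM KAM: median log10 fold change of treatment over DMSO control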;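 for 0.01 uM KAM: median log10 fold change of treatment over DMSO control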;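 for 0.1 uM KAM: median log10 fold change of treatment over DMSO control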;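 for 1 uM KAM: median log10 fold change of treatment over DMSO control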;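 for 10 uM KAM: median log10 fold change of treatment over DMSO control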
T5 construct: endogenous in cells; host or cells: K562
T5 sequence (P52333 1-1124): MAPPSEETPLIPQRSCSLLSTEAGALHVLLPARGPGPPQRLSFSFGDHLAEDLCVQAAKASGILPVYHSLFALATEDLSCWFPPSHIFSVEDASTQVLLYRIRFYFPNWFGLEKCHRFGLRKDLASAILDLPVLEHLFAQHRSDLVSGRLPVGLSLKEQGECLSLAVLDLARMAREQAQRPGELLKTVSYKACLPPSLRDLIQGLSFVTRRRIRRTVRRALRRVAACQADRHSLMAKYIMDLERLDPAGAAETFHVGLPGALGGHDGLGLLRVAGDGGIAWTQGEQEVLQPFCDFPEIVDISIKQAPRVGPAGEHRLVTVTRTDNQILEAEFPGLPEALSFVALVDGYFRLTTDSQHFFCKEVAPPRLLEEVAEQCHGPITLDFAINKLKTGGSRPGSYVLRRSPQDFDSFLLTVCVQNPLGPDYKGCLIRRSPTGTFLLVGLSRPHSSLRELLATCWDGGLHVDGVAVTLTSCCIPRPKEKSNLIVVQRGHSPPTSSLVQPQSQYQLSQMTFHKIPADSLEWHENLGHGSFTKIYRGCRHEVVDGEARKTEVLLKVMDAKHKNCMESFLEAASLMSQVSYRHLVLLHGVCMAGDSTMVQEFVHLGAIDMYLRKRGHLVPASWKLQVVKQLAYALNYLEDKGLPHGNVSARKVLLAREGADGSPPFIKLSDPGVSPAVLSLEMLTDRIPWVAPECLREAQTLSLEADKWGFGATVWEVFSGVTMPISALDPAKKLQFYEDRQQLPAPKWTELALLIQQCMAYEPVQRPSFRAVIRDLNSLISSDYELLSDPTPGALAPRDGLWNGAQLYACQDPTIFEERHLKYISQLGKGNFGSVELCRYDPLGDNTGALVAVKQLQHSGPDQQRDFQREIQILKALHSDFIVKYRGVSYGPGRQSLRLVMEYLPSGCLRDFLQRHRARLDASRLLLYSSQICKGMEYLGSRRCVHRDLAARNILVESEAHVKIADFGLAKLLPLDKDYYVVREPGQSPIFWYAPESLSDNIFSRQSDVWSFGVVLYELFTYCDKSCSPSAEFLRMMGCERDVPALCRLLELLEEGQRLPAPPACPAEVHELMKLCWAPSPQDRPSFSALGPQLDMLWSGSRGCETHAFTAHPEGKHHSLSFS
Experimental: as §1

[1] = KAM 0.001-10 uM, read-out: RB50 (the source's name)
[2] = read-out: RB50 (the source's name)

T4 sequence (Q13131 whole entry): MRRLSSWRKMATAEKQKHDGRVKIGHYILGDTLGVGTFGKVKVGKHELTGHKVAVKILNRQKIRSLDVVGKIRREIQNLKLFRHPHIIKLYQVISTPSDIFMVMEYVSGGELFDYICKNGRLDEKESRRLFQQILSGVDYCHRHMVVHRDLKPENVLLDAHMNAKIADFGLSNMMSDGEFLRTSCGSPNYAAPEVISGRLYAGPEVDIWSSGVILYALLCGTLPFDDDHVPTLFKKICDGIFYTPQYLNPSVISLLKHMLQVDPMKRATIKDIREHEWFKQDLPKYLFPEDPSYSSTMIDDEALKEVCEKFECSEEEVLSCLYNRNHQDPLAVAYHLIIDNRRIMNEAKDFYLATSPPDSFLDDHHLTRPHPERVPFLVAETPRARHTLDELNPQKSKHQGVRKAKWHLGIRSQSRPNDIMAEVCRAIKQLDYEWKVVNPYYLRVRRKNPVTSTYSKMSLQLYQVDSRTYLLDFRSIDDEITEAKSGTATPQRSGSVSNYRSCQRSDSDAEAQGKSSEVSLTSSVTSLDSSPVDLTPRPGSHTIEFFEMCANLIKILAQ
T4 sequence (Q9Y478 2-270 partner limits assumed): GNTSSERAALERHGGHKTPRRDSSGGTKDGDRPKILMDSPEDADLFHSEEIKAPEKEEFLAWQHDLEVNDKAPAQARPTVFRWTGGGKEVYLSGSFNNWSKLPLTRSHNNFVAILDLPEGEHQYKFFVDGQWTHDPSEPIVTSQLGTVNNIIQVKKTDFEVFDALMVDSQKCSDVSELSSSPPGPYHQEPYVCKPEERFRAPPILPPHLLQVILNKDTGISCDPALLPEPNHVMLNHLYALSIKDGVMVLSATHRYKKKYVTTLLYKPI
T4 sequence (P54619 whole entry partner): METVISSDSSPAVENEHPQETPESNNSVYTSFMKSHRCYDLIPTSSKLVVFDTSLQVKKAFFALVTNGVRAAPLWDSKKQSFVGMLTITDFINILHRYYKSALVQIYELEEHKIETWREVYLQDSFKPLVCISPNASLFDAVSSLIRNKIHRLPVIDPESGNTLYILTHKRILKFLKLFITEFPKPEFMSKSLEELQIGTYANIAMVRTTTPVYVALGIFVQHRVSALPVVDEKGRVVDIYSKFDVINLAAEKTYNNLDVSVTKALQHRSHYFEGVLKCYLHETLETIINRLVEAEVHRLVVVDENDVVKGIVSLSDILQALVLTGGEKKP
T2 sequence (O43353 whole entry): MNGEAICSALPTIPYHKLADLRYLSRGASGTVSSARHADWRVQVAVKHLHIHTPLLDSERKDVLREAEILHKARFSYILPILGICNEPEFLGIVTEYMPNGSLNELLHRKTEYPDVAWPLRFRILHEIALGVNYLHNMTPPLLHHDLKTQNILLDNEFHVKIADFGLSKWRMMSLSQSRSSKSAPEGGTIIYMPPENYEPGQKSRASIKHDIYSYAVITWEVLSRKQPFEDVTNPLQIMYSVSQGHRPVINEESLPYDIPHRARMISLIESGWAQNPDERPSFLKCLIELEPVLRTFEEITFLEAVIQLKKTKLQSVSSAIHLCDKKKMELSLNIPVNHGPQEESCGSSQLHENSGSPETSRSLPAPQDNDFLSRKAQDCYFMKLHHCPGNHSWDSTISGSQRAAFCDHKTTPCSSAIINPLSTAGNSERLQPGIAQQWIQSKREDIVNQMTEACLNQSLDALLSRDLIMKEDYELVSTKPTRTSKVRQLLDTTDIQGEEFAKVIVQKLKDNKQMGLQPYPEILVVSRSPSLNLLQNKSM

N#CCc1ccc(Nc2nc(NCCCN)cc(Nc3cc(C4CC4)[nH]n3)n2)cc1 [KAM]
IC50 (NME7; [1]): > 10000 nM
0.001 uM KAM (NME7; relative to 0 uM KAM = 0): -0.02057
0.01 uM KAM (NME7; relative to 0 uM KAM = 0): -0.007814
0.1 uM KAM (NME7; relative to 0 uM KAM = 0): 0.03797
1 uM KAM (NME7; relative to 0 uM KAM = 0): 0.05362
10 uM KAM (NME7; relative to 0 uM KAM = 0): 0.03977
median Log10 fold change (RIPK2; 0.001 uM KAM): 0.003964
median Log10 fold change (RIPK2; 0.01 uM KAM): -0.006424
median Log10 fold change (RIPK2; 0.1 uM KAM): -0.0711
median Log10 fold change (RIPK2; 1 uM KAM): -0.241
median Log10 fold change (RIPK2; 10 uM KAM): -0.4874
IC50 (RIPK2; [2]): 1860 nM
IC50 (TLK1; [1]): > 10000 nM
0.001 uM KAM (TLK1; relative to 0 uM KAM = 0): -0.0133
0.01 uM KAM (TLK1; relative to 0 uM KAM = 0): 0.001518
0.1 uM KAM (TLK1; relative to 0 uM KAM = 0): -0.1562
1 uM KAM (TLK1; relative to 0 uM KAM = 0): -0.3373
10 uM KAM (TLK1; relative to 0 uM KAM = 0): -0.1561
median Log10 fold change (PRKAA1; 0.001 uM KAM): 0.006818
median Log10 fold change (PRKAA1; 0.01 uM KAM): -0.02218
median Log10 fold change (PRKAA1; 0.1 uM KAM): -0.1974
median Log10 fold change (PRKAA1; 1 uM KAM): -0.5073
median Log10 fold change (PRKAA1; 10 uM KAM): -0.6565
IC50 (PRKAA1; [2]): 284 nM
IC50 (JAK3; [1]): > 10000 nM
0.001 uM KAM (JAK3; relative to 0 uM KAM = 0): -0.04271
0.01 uM KAM (JAK3; relative to 0 uM KAM = 0): -0.0544
0.1 uM KAM (JAK3; relative to 0 uM KAM = 0): -0.1188
1 uM KAM (JAK3; relative to 0 uM KAM = 0): -0.2952
10 uM KAM (JAK3; relative to 0 uM KAM = 0): -0.1976
